Entries after “also recorded” stand apart in the source; their conditions may differ. Like-named read-outs stand apart in the source and are kept apart here.
Legend:
SEMK2 = assay: Cell proliferation, SEMK2; format: cell-based; settings: Homo sapiens; MLL-translocated line SEMK2; FIG. 2
KOPN-8 = assay: Cell proliferation, KOPN-8; format: cell-based; settings: Homo sapiens; MLL-translocated line KOPN-8; FIG. 2
Molm-13 [1] = assay: Cell proliferation, Molm-13; format: cell-based; settings: Homo sapiens; MLL-translocated line Molm-13; FIG. 2
THP-1 = assay: Cell proliferation, THP-1; format: cell-based; settings: Homo sapiens; MLL-translocated line THP-1; FIG. 2
Jurkat [2] = assay: Cell proliferation, Jurkat; format: cell-based; settings: Homo sapiens; non-MLL-translocated line Jurkat; FIG. 2
697 = assay: Cell proliferation, 697; format: cell-based; settings: Homo sapiens; non-MLL-translocated line 697; FIG. 2
REH = assay: Cell proliferation, REH; format: cell-based; settings: Homo sapiens; non-MLL-translocated line REH; FIG. 2
HL-60 = assay: Cell proliferation, HL-60; format: cell-based; settings: Homo sapiens; non-MLL-translocated line HL-60; FIG. 2
[3] = test system: HOXA7, HOXA9, HOXA10, and MEIS1; assay: HOX/MEIS1 mRNA expression in NUP98-NSD1 transformed cells; format: cell-based, mouse; settings: 10 μM, 7 day treatment; FIG. 5B
From the text: FIG. 5B is a histogram showing mRNA expression of HOXA7, HOXA9, HOXA10, and MEIS1 relative to GAPDH (ddCT).

H3K79me2 [4] = assay: H3K79 methylation in NUP98-NSD1 transformed cells; format: cell-based, mouse; settings: 10 μM
[5] = test system: NUP98-NSD1 transformed cells; assay: Annexin V apoptosis in NUP98-NSD1 transformed cells; format: cell-based, mouse; settings: 10 μM, 10 days; compared with MLL-AF9 transformed cells; FIG. 8B
Description: (§1) The percentage of Annexin V positive cells is shown.
(§2) Apoptosis was assessed by staining cells with Annexin V 10 days after treatment. The extent of apoptosis was compared to that found in MLL-AF9 transformed cells treated in a similar fashion.

[6] = test system: MLL-AF9 transformed cells; assay: Annexin V apoptosis in MLL-AF9 transformed cells; format: cell-based, mouse; settings: 10 μM, 10 days; FIG. 8B
Description: as §1, §2

OCI-AML3 [7] = assay: Proliferation of OCI-AML3 (NPM1 mutant) cells; format: cell-based, human
Description: as §2
(§3) Cell numbers were assessed at multiple time points after treatment was initiated. […] Evidence of differentiation was assessed after DOT1L inhibition via characterization of cell surface marker expression—such as CD11b and CD15 expression, both of which are induced upon differentiation of myelomonocytic leukemia cells.
(§4) MTT assays were performed on day 11.

OCI-AML2 = assay: Proliferation of OCI-AML2 (DNTM3A mutant) cells; format: cell-based, human
Description: as §2, §3, §4

[8] = test system: HOXA9, HOXA10, MEIS1, HOXB3, HOXB4 and HOXB5 mRNA; assay: HOX gene qPCR in Npm1^cA/+Rosa^SB/+ AML cells; format: cell-based, mouse; settings: 10 μM, FIG. 14A
Description: (§5) The effect of DOT1L inhibition on the levels of various HOX genes and HOX-associated genes was evaluated using qPCR.

[9] = test system: HOXA9, HOXA10, MEIS1, HOXB3, HOXB4 and HOXB5 mRNA; assay: HOX gene qPCR in Npm1^cA/+Flt3^ITD/+ AML cells; format: cell-based, mouse; settings: 10 μM, FIG. 14B
Description: as §5

[10] = test system: HOXA9/MEIS1 transformed cells; assay: Sensitivity of HOXA9/MEIS1 transformed cells; format: cell-based, murine
other methyltransferases = settings: in words; FIG. 1B; cited from earlier work
MV4-11 = settings: Daigle, 2011; cited from earlier work
Molm-13 [11] = settings: Daigle, 2011; cited from earlier work
Jurkat [12] = settings: Daigle, 2011; cited from earlier work
H3K79me2 [13] = settings: 0.048, 0.195, 0.781, 3.12, and 12.5 μm; FIG. 1A; cited from earlier work
H3K79me2 [14] = settings: 0.048, 0.195, 0.781, 3.12, and 12.5 μm; FIG. 1A; cited from earlier work; remark: listed apart in the source
MLL xenograft = settings: in vivo administration; cited from earlier work
H3K79 methylation = settings: MLL-translocated leukemia cell lines; cited from earlier work
[15] = test system: MLL-translocated cell lines; settings: Daigle; cited from earlier work
Kasumi-1 = assay: Cell proliferation, Kasumi-1 (AML1-ETO)
OCI-AML3 [16] = assay: Apoptosis and cell cycle in OCI-AML3 cells
[17] = test system: MLL-translocated cell lines; assay: Proliferation of MLL-translocated cell lines; settings: versus MLL-germline lines; FIG. 2
[18] = test system: Npm1^cA/+Rosa^SB/+ AML cells; assay: Colony formation of Npm1^cA/+Rosa^SB/+ AML cells; settings: 10 μM; after primary and secondary transplantation; FIG. 12A, B
[19] = test system: Npm1^cA/+Flt3^ITD/+ AML cells; assay: Colony formation of Npm1^cA/+Flt3^ITD/+ AML cells; settings: 10 μM, after primary and secondary transplantation, FIG. 12A, B
[20] = test system: MLL germline leukemia cell lines; assay: Proliferation of MLL germline leukemia cell lines; settings: 10 μM; cell lines that do not show elevated HOXA gene expression; FIG. 2

CC(C)N(CCCNC(=O)Nc1ccc(C(C)(C)C)cc1)C[C@H]1O[C@@H](n2ccc3c(N)ncnc32)[C@H](O)[C@@H]1O [EPZ004777, 1-(3-((((2R,3S,4R,5R)-5-(4-Amino-7H-pyrrolo[2,3-d]pyrimidin-7-yl)-3,4-dihydroxytetrahydrofuran-2-yl)methyl)(isopropyl)amino)propyl)-3-(4-(tert-butyl)phenyl)urea]
IC50 (SEMK2): 1700 nM | IC50 (KOPN-8): 620 nM | IC50 (Molm-13 [1]): 720 nM | IC50 (THP-1): 3000 nM | IC50 (Jurkat [2]): > 50000 nM | IC50 697: 35000 nM | IC50 (REH): 14000 nM | IC50 (HL-60): > 50000 nM | mRNA expression of HOXA7, HOXA9, HOXA10, and MEIS1 [3]: substantial decrease; also recorded: strong inhibitory effect | HOX promoter associated H3K79 methylation (H3K79me2 [4]; 7 day treatment): significantly reduced | global H3K79me2 level (Western blotting) (H3K79me2 [4]; 10 days, NUP98-NSD1 cells, FIG. 8A): completely abrogated; also recorded: decrease | apoptosis (Annexin V staining) [5]: more apoptosis; also recorded: induces apoptosis | apoptosis (Annexin V staining) [6]: induces apoptosis | proliferation / cell number versus DMSO (OCI-AML3 [7]; 10 μM, compared with MLL-translocated line (Molm-13), FIG. 7C, 10): as sensitive; also recorded: equally, if not more sensitive; also recorded: dramatically inhibited | IC50 (OCI-AML3 [7]; Homo sapiens, OCI-AML-3, 264 h, MTT assays on day 11, concentrations up to 10 μM): 150 nM | cell number versus DMSO (OCI-AML2; 10 μM, compared with Molm-13, FIG. 10): equally, if not more sensitive; also recorded: sensitive | IC50 (OCI-AML2; Homo sapiens, OCI-AML2, 264 h, MTT assays on day 11, concentrations up to 10 μM): 150 nM | HOXA9, HOXA10, MEIS1, HOXB3, HOXB4 and HOXB5 mRNA levels [8]: decreased | HOXA9, HOXA10, MEIS1, HOXB3, HOXB4 and HOXB5 mRNA levels ([8]; listed as EPZ00477): significant decrease | HOXA9, HOXA10, MEIS1, HOXB3, HOXB4 and HOXB5 mRNA levels [9]: decreased | HOXA9, HOXA10, MEIS1, HOXB3, HOXB4 and HOXB5 mRNA levels ([9]; listed as EPZ00477): significant decrease | sensitivity to DOT1L inhibition [10]: insensitive | specificity for DOT1L / H3K79me as compared to other methyl transferases (other methyltransferases): highly specific; also recorded: remarkable specificity | growth of MV4-11 leukemia cells (MV4-11): exquisitely sensitive | growth of the MLL-AF9 cell line Molm-13 (Molm-13 [11]): exquisitely sensitive | growth of MLL-germline Jurkat cells (Jurkat [12]): unaffected | H3K79me2 histone methylation (H3K79me2 [13]): inhibited | H3K79me2 histone methylation (H3K79me2 [14]): inhibited | survival (MLL xenograft): prolonged survival; also recorded: extension of survival | concentration range inhibiting H3K79 methylation (H3K79 methylation): mid-nM range | antiproliferative, differentiating, and apoptotic activities toward leukemia cells harboring MLL fusions [15]: highly selective | proliferation (cell counts) (Kasumi-1; 10 μM, AML1-ETO (Kasumi) cells, FIG. 3B, 7D): not sensitive; also recorded: insensitive | IC50 (Kasumi-1; Homo sapiens, Kasumi 1, read-out: IC50 for cell proliferation): 33000 nM | cell cycle status by flow cytometry (OCI-AML3 [16]): Sub G1 accumulation | apoptotic cells (Annexin V staining) (OCI-AML3 [16]; 10 μM, 4, 7, or 10 days, FIG. 11A): tremendous increase in apoptotic cells; also recorded: apoptosis | inhibition of proliferation of MLL-translocated cell lines [17]: selectively inhibits | colony formation potential [18]: significant reduction | colony formation potential [19]: significant reduction; also recorded: reduce the colony formation potential | colony formation potential ([19]; listed as EPZ00477): significant reduction | influence on proliferation [20]: does not influence

— patent US11603570B2, “Methods for the detection and treatment of leukemias that are responsive to DOT1L inhibition” (MEMORIAL SLOAN KETTERING CANCER CENTER, priority 2013, dated 2023)
